Among the data in US8436159B2, “Glyphosate resistant class I 5-endolpyruvylshikimate-3-phosphate synthase (EPSPS)” (Monsanto Technology LLC, priority 2003, dated 2013) are Ki values, retold here.

In assay [1] the target is T1, maize (Zea mays) class I EPSPS variant TIPI (T102I, P106I), pMON42486 (Zea mays, UniProt O24566, P106I/T102I).
T1 construct: pMON42486
T1 sequence (O24566 1-444 T102I/P106I): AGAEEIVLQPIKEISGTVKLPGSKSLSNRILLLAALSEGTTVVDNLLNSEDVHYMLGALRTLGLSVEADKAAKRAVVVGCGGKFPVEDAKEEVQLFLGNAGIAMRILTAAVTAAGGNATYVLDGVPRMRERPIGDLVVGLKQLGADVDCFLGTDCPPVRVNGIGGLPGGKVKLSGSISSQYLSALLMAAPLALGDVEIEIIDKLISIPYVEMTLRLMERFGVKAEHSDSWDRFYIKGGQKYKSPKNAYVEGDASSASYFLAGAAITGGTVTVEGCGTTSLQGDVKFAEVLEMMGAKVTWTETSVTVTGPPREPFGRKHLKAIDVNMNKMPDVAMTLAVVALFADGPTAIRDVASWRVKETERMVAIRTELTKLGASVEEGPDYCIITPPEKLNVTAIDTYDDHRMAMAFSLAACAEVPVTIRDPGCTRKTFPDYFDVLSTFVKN
In words: EPSPS steady-state kinetics, TIPI variant. Format: biochemical. An excerpt:
(§1) The double variants of the present invention were made using pMON58452 (FIG. 5) as the template. This pMON58452 EPSPS gene template contains the maize EPSPS double variant T102I, P106T (TIPT) that was constructed by mutagenesis of pMON70467 with the mutagenesis primers mEmut-9-U and mEmut-10-L. The various mutagenesis primer sequences were designed and then were synthesized by Invitrogen Corp., Custom Primers and used in combination in a PCR to create the variant EPSPS coding sequences. The PCR was set up in a 50 μl reaction in the following manner: dH2O 38 μl; 2 mM dNTP 1 μL; 10× buffer 5 μL; pMON58452 1 μL (10 ng); primer-U 2 μL; primer-L 2 μL; pfu Turbo enzyme 1 μL. PCR was carried out on a MJ Research PTC-200 thermal cycler using the following program: Step 1—94° C. for 30 seconds; Step 2—94° C. for 30 seconds; Step 3—55° C. for 1 minute; Step 4—68° C. for 14 minute; Step 5—go to step 2, 16 times; Step 6—End. At the end of the PCR, 1 μl of the restriction enzyme DpnI was added to each 50 μl of PCR reaction and the mixture was incubated at 37° C. for 1 hour. […]

For assay [2], the target named is T2, maize (Zea mays) class I EPSPS variant TIPV (T102I, P106V), pMON42482 (Zea mays, UniProt O24566, P106V/T102I).
T2 construct: pMON42482
T2 sequence (O24566 1-444 T102I/P106V): T1 sequence (O24566 1-444 T102I/P106I) with I106V
The experiment in a line: EPSPS steady-state kinetics, TIPV variant. Format: biochemical.
From the text: as §1

Residue numbers refer to the chain shown, from its start.

A word on the Ki: it is a measure of affinity in units of concentration, obtained from inhibition or displacement. `O=C(O)CNCP(=O)(O)O` [glyphosate, N-phosphonomethylglycine]: the Ki in assay [1] came out at 2.5 ± 0.9 mM; in assay [2], 1.6 ± 0.4 mM.
